The source made the active and inactive calls. The calls are words filed in the database; no cut-off is given here.
What was measured:
[1] = target: T1, Dihydrofolate reductase (Homo sapiens, UniProt P00374); assay: Inhibition of human DHFR assessed as conversion of dihydrofolic acid to tetrahydrfolic acid by enzyme immunoassay in presence of NADPH
T1 sequence (P00374 whole entry): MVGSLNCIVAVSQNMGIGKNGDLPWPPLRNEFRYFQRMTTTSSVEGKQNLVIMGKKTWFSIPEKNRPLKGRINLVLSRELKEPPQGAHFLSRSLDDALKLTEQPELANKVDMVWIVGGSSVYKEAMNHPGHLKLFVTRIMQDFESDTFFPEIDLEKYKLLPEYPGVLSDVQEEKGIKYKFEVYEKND

[2] = system: CCRF-CEM; conditions: Homo sapiens, 10^-5 M
Description: Cytotoxicity against human CCRF-CEM cells assessed as tumor growth inhibition at 10^-5 M after 48 hrs by sulforhodamine B assay

[3] = system: HL-60(TB); conditions: Homo sapiens, 10^-5 M
Description: Cytotoxicity against human HL-60(TB) cells assessed as tumor growth inhibition at 10^-5 M after 48 hrs by sulforhodamine B assay

[4] = system: K562; conditions: Homo sapiens, 10^-5 M
Description: Cytotoxicity against human K562 cells assessed as tumor growth inhibition at 10^-5 M after 48 hrs by sulforhodamine B assay

[5] = system: MOLT-4; conditions: Homo sapiens, 10^-5 M
Description: Cytotoxicity against human MOLT4 cells assessed as tumor growth inhibition at 10^-5 M after 48 hrs by sulforhodamine B assay

[6] = system: RPMI-8226; conditions: Homo sapiens, 10^-5 M
Description: Cytotoxicity against human RPMI8226 cells assessed as tumor growth inhibition at 10^-5 M after 48 hrs by sulforhodamine B assay

[7] = system: SR; conditions: Homo sapiens, 10^-5 M
Description: Cytotoxicity against human SR cells assessed as tumor growth inhibition at 10^-5 M after 48 hrs by sulforhodamine B assay

[8] = system: A549; conditions: Homo sapiens, 10^-5 M
Description: Cytotoxicity against human A549 cells assessed as tumor growth inhibition at 10^-5 M after 48 hrs by sulforhodamine B assay

[9] = system: EKVX; conditions: Homo sapiens, 10^-5 M
Description: Cytotoxicity against human EKVX cells assessed as tumor growth inhibition at 10^-5 M after 48 hrs by sulforhodamine B assay

[10] = system: HOP-62; conditions: Homo sapiens, 10^-5 M
Description: Cytotoxicity against human HOP62 cells assessed as tumor growth inhibition at 10^-5 M after 48 hrs by sulforhodamine B assay

[11] = system: HOP-92; conditions: Homo sapiens, 10^-5 M
Description: Cytotoxicity against human HOP92 cells assessed as tumor growth inhibition at 10^-5 M after 48 hrs by sulforhodamine B assay

[12] = system: NCI-H226; conditions: Homo sapiens, 10^-5 M
Description: Cytotoxicity against human NCI-H226 cells assessed as tumor growth inhibition at 10^-5 M after 48 hrs by sulforhodamine B assay

[13] = system: NCI-H23; conditions: Homo sapiens, 10^-5 M
Description: Cytotoxicity against human NCI-H23 cells assessed as tumor growth inhibition at 10^-5 M after 48 hrs by sulforhodamine B assay

[14] = system: NCI-H460; conditions: Homo sapiens, 10^-5 M
Description: Cytotoxicity against human NCI-H460 cells assessed as tumor growth inhibition at 10^-5 M after 48 hrs by sulforhodamine B assay

[15] = system: NCI-H522; conditions: Homo sapiens, 10^-5 M
Description: Cytotoxicity against human NCI-H522 cells assessed as tumor growth inhibition at 10^-5 M after 48 hrs by sulforhodamine B assay

[16] = system: COLO 205; conditions: Homo sapiens, 10^-5 M
Description: Cytotoxicity against human COLO205 cells assessed as tumor growth inhibition at 10^-5 M after 48 hrs by sulforhodamine B assay

[17] = system: HCC 2998; conditions: Homo sapiens, 10^-5 M
Description: Cytotoxicity against human HCC2998 cells assessed as tumor growth inhibition at 10^-5 M after 48 hrs by sulforhodamine B assay

[18] = system: HCT-116; conditions: Homo sapiens, 10^-5 M
Description: Cytotoxicity against human HCT116 cells assessed as tumor growth inhibition at 10^-5 M after 48 hrs by sulforhodamine B assay

[19] = system: HCT-15; conditions: Homo sapiens, 10^-5 M
Description: Cytotoxicity against human HCT15 cells assessed as tumor growth inhibition at 10^-5 M after 48 hrs by sulforhodamine B assay

[20] = system: HT-29; conditions: Homo sapiens, 10^-5 M
Description: Cytotoxicity against human HT-29 cells assessed as tumor growth inhibition at 10^-5 M after 48 hrs by sulforhodamine B assay

[21] = system: KM12; conditions: Homo sapiens, 10^-5 M
Description: Cytotoxicity against human KM12 cells assessed as tumor growth inhibition at 10^-5 M after 48 hrs by sulforhodamine B assay

[22] = system: SW-620; conditions: Homo sapiens, 10^-5 M
Description: Cytotoxicity against human SW620 cells assessed as tumor growth inhibition at 10^-5 M after 48 hrs by sulforhodamine B assay

[23] = system: SF-268; conditions: Homo sapiens, 10^-5 M
Description: Cytotoxicity against human SF268 cells assessed as tumor growth inhibition at 10^-5 M after 48 hrs by sulforhodamine B assay

[24] = system: SF-295; conditions: Homo sapiens, 10^-5 M
Description: Cytotoxicity against human SF295 cells assessed as tumor growth inhibition at 10^-5 M after 48 hrs by sulforhodamine B assay

[25] = system: SF-539; conditions: Homo sapiens, 10^-5 M
Description: Cytotoxicity against human SF539 cells assessed as tumor growth inhibition at 10^-5 M after 48 hrs by sulforhodamine B assay

[26] = system: SNB-19; conditions: Homo sapiens, 10^-5 M
Description: Cytotoxicity against human SNB19 cells assessed as tumor growth inhibition at 10^-5 M after 48 hrs by sulforhodamine B assay

[27] = system: SNB-75; conditions: Homo sapiens, 10^-5 M
Description: Cytotoxicity against human SNB75 cells assessed as tumor growth inhibition at 10^-5 M after 48 hrs by sulforhodamine B assay

[28] = system: U-251; conditions: Homo sapiens, 10^-5 M
Description: Cytotoxicity against human U251 cells assessed as tumor growth inhibition at 10^-5 M after 48 hrs by sulforhodamine B assay

[29] = system: LOX IMVI; conditions: Homo sapiens, 10^-5 M
Description: Cytotoxicity against human LOXIMVI cells assessed as tumor growth inhibition at 10^-5 M after 48 hrs by sulforhodamine B assay

[30] = system: Malme-3M; conditions: Homo sapiens, 10^-5 M
Description: Cytotoxicity against human MALME-3M cells assessed as tumor growth inhibition at 10^-5 M after 48 hrs by sulforhodamine B assay

[31] = system: M14; conditions: Homo sapiens, 10^-5 M
Description: Cytotoxicity against human M14 cells assessed as tumor growth inhibition at 10^-5 M after 48 hrs by sulforhodamine B assay

[32] = system: MDA-MB-435; conditions: Homo sapiens, 10^-5 M
Description: Cytotoxicity against human MDA-MB-435 cells assessed as tumor growth inhibition at 10^-5 M after 48 hrs by sulforhodamine B assay

[33] = system: SK-MEL-2; conditions: Homo sapiens, 10^-5 M
Description: Cytotoxicity against human SK-MEL-2 cells assessed as tumor growth inhibition at 10^-5 M after 48 hrs by sulforhodamine B assay

[34] = system: SK-MEL-28; conditions: Homo sapiens, 10^-5 M
Description: Cytotoxicity against human SK-MEL-28 cells assessed as tumor growth inhibition at 10^-5 M after 48 hrs by sulforhodamine B assay

[35] = system: SK-MEL-5; conditions: Homo sapiens, 10^-5 M
Description: Cytotoxicity against human SK-MEL-5 cells assessed as tumor growth inhibition at 10^-5 M after 48 hrs by sulforhodamine B assay

[36] = system: UACC-257; conditions: Homo sapiens, 10^-5 M
Description: Cytotoxicity against human UACC257 cells assessed as tumor growth inhibition at 10^-5 M after 48 hrs by sulforhodamine B assay

[37] = system: UACC-62; conditions: Homo sapiens, 10^-5 M
Description: Cytotoxicity against human UACC62 cells assessed as tumor growth inhibition at 10^-5 M after 48 hrs by sulforhodamine B assay

[38] = system: IGROV-1; conditions: Homo sapiens, 10^-5 M
Description: Cytotoxicity against human IGROV1 cells assessed as tumor growth inhibition at 10^-5 M after 48 hrs by sulforhodamine B assay

[39] = system: OVCAR-3; conditions: Homo sapiens, 10^-5 M
Description: Cytotoxicity against human OVCAR3 cells assessed as tumor growth inhibition at 10^-5 M after 48 hrs by sulforhodamine B assay

[40] = system: OVCAR-4; conditions: Homo sapiens, 10'-5 M
Description: Cytotoxicity against human OVCAR4 cells assessed as tumor growth inhibition at 10^-5 M after 48 hrs by sulforhodamine B assay

[41] = system: OVCAR-5; conditions: Homo sapiens, 10^-5 M
Description: Cytotoxicity against human OVCAR5 cells assessed as tumor growth inhibition at 10^-5 M after 48 hrs by sulforhodamine B assay

[42] = system: OVCAR-8; conditions: Homo sapiens, 10^-5 M
Description: Cytotoxicity against human OVCAR8 cells assessed as tumor growth inhibition at 10^-5 M after 48 hrs by sulforhodamine B assay

[43] = system: NCI/ADR-RES; conditions: Homo sapiens, 10^-5 M
Description: Cytotoxicity against human NCI-ADR-RES cells assessed as tumor growth inhibition at 10^-5 M after 48 hrs by sulforhodamine B assay

[44] = system: SK-OV-3; conditions: Homo sapiens, 10^-5 M
Description: Cytotoxicity against human SKOV3 cells assessed as tumor growth inhibition at 10^-5 M after 48 hrs by sulforhodamine B assay

[45] = system: 786-0; conditions: Homo sapiens, 10^-5 M
Description: Cytotoxicity against human 786-0 cells assessed as tumor growth inhibition at 10^-5 M after 48 hrs by sulforhodamine B assay

[46] = system: A498; conditions: Homo sapiens, 10^-5 M
Description: Cytotoxicity against human A498 cells assessed as tumor growth inhibition at 10^-5 M after 48 hrs by sulforhodamine B assay

[47] = system: ACHN; conditions: Homo sapiens, 10^-5 M
Description: Cytotoxicity against human ACHN cells assessed as tumor growth inhibition at 10^-5 M after 48 hrs by sulforhodamine B assay

[48] = system: CAKI-1; conditions: Homo sapiens, 10^-5 M
Description: Cytotoxicity against human Caki1 cells assessed as tumor growth inhibition at 10^-5 M after 48 hrs by sulforhodamine B assay

[49] = system: RXF 393; conditions: Homo sapiens, 10^-5 M
Description: Cytotoxicity against human RXF393 cells assessed as tumor growth inhibition at 10^-5 M after 48 hrs by sulforhodamine B assay

[50] = system: SN12C; conditions: Homo sapiens, 10^-5 M
Description: Cytotoxicity against human SN12C cells assessed as tumor growth inhibition at 10^-5 M after 48 hrs by sulforhodamine B assay

[51] = system: TK-10; conditions: Homo sapiens, 10^-5 M
Description: Cytotoxicity against human TK10 cells assessed as tumor growth inhibition at 10^-5 M after 48 hrs by sulforhodamine B assay

[52] = system: UO-31; conditions: Homo sapiens, 10^-5 M
Description: Cytotoxicity against human UO31 cells assessed as tumor growth inhibition at 10^-5 M after 48 hrs by sulforhodamine B assay

[53] = system: PC-3; conditions: Homo sapiens, 10^-5 M
Description: Cytotoxicity against human PC3 cells assessed as tumor growth inhibition at 10^-5 M after 48 hrs by sulforhodamine B assay

[54] = system: DU-145; conditions: Homo sapiens, 10^-5 M
Description: Cytotoxicity against human DU145 cells assessed as tumor growth inhibition at 10^-5 M after 48 hrs by sulforhodamine B assay

[55] = system: MCF7; conditions: Homo sapiens, 10^-5 M
Description: Cytotoxicity against human MCF7 cells assessed as tumor growth inhibition at 10^-5 M after 48 hrs by sulforhodamine B assay

[56] = system: MDA-MB-231; conditions: Homo sapiens, 10^-5 M
Description: Cytotoxicity against human MDA-MB-231 cells assessed as tumor growth inhibition at 10^-5 M after 48 hrs by sulforhodamine B assay

[57] = system: Hs-578T; conditions: Homo sapiens, 10^-5 M
Description: Cytotoxicity against human Hs 578T cells assessed as tumor growth inhibition at 10^-5 M after 48 hrs by sulforhodamine B assay

[58] = system: BT-549; conditions: Homo sapiens, 10^-5 M
Description: Cytotoxicity against human BT549 cells assessed as tumor growth inhibition at 10^-5 M after 48 hrs by sulforhodamine B assay

[59] = system: T47D; conditions: Homo sapiens, 10^-5 M
Description: Cytotoxicity against human T47D cells assessed as tumor growth inhibition at 10^-5 M after 48 hrs by sulforhodamine B assay

[60] = system: MDA-MB-468; conditions: Homo sapiens, 10^-5 M
Description: Cytotoxicity against human MDA-MB-468 cells assessed as tumor growth inhibition at 10^-5 M after 48 hrs by sulforhodamine B assay

`O=C1Nc2ccc([N+](=O)[O-])cc2/C1=C/c1cn(CC(O)Cn2cc(/C=C3\C(=O)Nc4ccc([N+](=O)[O-])cc43)c3ccccc32)c2ccccc12` (stereo unspecified) gave an IC50 [1] of 0.7 µM.
With `COc1cc(Cc2cnc(N)nc2N)cc(OC)c1OC` the TGI [2] was “inactive”, the TGI [3] was “inactive” and the TGI [4] was “inactive”. The TGI [5] was “inactive”, the TGI [6] was “inactive” and the TGI [7] was “inactive”. The TGI [8] was “inactive”, the TGI [9] was “inactive” and the TGI [10] was “inactive”. For the same compound, the TGI [11] was “inactive”, the TGI [12] was “inactive” and the TGI [13] was “inactive”. For the same compound, the TGI [14] was “inactive”, the TGI [15] was “inactive” and the TGI [16] was “inactive”. The TGI [17] was “inactive”, the TGI [18] was “inactive” and the TGI [19] was “inactive”. The TGI [20] was “inactive”, the TGI [21] was “inactive” and the TGI [22] was “inactive”. For the same compound, the TGI [23] was “inactive”, the TGI [24] was “inactive” and the TGI [25] was “inactive”. The TGI [26] was “inactive”, the TGI [27] was “inactive” and the TGI [28] was “inactive”. The TGI [29] was “inactive”, the TGI [30] was “inactive” and the TGI [31] was “inactive”. The TGI [32] was “inactive”, the TGI [33] was “inactive” and the TGI [34] was “inactive”. For the same compound, the TGI [35] was “inactive”, the TGI [36] was “inactive” and the TGI [37] was “inactive”. For the same compound, the TGI [38] was “inactive”, the TGI [39] was “inactive” and the TGI [40] was “inactive”. The TGI [41] was “inactive”, the TGI [42] was “inactive” and the TGI [43] was “inactive”. For the same compound, the TGI [44] was “inactive”, the TGI [45] was “inactive” and the TGI [46] was “inactive”. The TGI [47] was “inactive”, the TGI [48] was “inactive” and the TGI [49] was “inactive”. The TGI [50] was “inactive”, the TGI [51] was “inactive” and the TGI [52] was “inactive”. The TGI [53] was “inactive”, the TGI [54] was “inactive” and the TGI [55] was “inactive”. For the same compound, the TGI [56] was “inactive”, the TGI [57] was “inactive” and the TGI [58] was “inactive”. For the same compound, the TGI [59] was “inactive” and the TGI [60] was “inactive”.
For `O=C1NC(=S)NC(=O)C1=Cc1cn(CC(O)Cn2cc(C=C3C(=O)NC(=S)NC3=O)c3ccccc32)c2ccccc12`, the IC50 [1] was 7 µM.
